Measurements taken from patent publication US7745481B2, “Methods and compositions for the treatment and prevention of tumors, tumor-related disorders and cachexia” (Daiichi Sankyo Company, Limited, priority 1997, dated 2010).

Tests used:
[1] = tested on: mouse colon cancer Colon 26 cells; test: Life-prolonging activity test in mice bearing Colon 26 cells; format: in vivo; conditions: for Life-prolongation (in words): Example 7, animals of Examples 3 and 4, present tense, no data; for Life-prolonging Index (%) / Survival Period (median: days): mice of Example 1; for Life-prolonging Index (%): (St/Sc−1)×100; for Survival Period (median: days): untreated 29.0
Method: Observation of the mice used in Example 1 above was continued. The life-prolonging index was determined, based on the number of days each mouse survived, and this value was then used as an indicator of the life-prolonging effects of the test compounds.
It should be noted that, in the case of the group of mice treated with a test compound, oral administration of the respective compound once daily was continued on day 20 after tumor cell transplantation and beyond as well. Life-prolonging index (%)=(St/Sc−1)×100 • St: Median value of survival time (days) of the group of mice treated with a test compound • Sc: Median value of survival time (days) of the control group which were […].
The experiment reported in Example 5 was repeated with the animals used in Example 2. In the case of the group of mice treated with a test compound, oral administration of the respective compound once daily was continued on day 23 after tumor cell transplantation and beyond as well.
The experiment reported in Example 5 is repeated with the animals used in Examples 3 and 4.

[2] = tested on: mouse colon cancer Colon 26 cells; test: Test of anticachexia effects in mice bearing mouse colon cancer Colon 26 cells; format: in vivo; conditions: for Inhibition of mouse tumor cachexia and recovery of body weight loss (in words): Example 4, written in present tense, no data; for Body Weight Recovery Rate (%): day 19, (Δgt−Δgc1)/(Δgc2−Δgc1)×100; for Weight Gain (Δg): day 19 after tumor cell transplantation, female CDF1 mice 8 weeks old
Text: The test animals were CDF1 mice (females, 8 weeks old). They were employed in groups of 10 for each test. 1×10^6 mouse colon cancer Colon 26 cells were transplanted subcutaneously into each animal.
The test compounds were Compounds No. 1-94 and 2-78 as shown above in Tables 1 and 2, respectively, and having the following formulae: […]
Each test compound was suspended in sterilized distilled water containing 0.5% w/v carboxymethyl cellulose (CMC) and administered orally once per day starting on the day of the tumor cell transplantation.
Each test animal was weighed immediately after tumor cell transplantation, and the weight (A g) was recorded. Each animal was then weighed on day 19 after tumor cell transplantation, and the weight (B g) was recorded. The weight gain on day 19 after tumor cell transplantation was calculated as B−A=Δgt for the test animals. The experiment was repeated with two control groups: the first control group (control group 1) was transplanted with the tumor cells but were not treated with any test compound, and the weight gain is reported as Δgc1; the second control group (control group 2) were not transplanted with the tumor cells and were not treated with any test compound, and the weight gain is reported as Δgc2. The body weight recovery rate was determined according to the following formula based on the weight gain on day 19 after tumor cell transplantation, and this value was used as an indicator of the anticachexia effect. Body weight recovery rate (%)=(Δgt−Δgc1)/(Δgc2−Δgc1)×100
(§1) The procedure described in Example 1 was repeated, but using the compound of formula (III) as the test compound, and comparing the weight gain (Δgt) of the test group of animals to which the compound of formula (III) had been administered with a control group (Δgc) into which the tumor cells had been transplanted but to which no anti-tumor compound had been administered. The test animals were female CDF1 mice, 16 weeks old. Also, the weight gain was measured 22 days after tumor transplantation. The average body weight of each group of animals immediately after tumor transplantation was 25 to 26 g.
as §1, with “Example 2” for “Example 1”, “formula (IV)” for “formula (III)”, “mice, 7” for “mice, 16”, “measured 15” for “measured 22”, “was 20” for “was 25”, “to 21” for “to 26”
Test compounds [the compounds of formula (V), (VI), (VII), (VIII), (IX), (X), (XI), (XII), (XIII) and (XIV)] are administered in the same manner as described in Example 2.

Cc1nc(C2CCCCC2)c(-c2ccc(S(N)(=O)=O)c(F)c2)o1 [(VIII), 4-(4-cyclohexyl-2-methyloxazol-5-yl)-2-fluorobenzenesulfonamide]
Life-prolongation (in words) [1]: exhibit pronounced life-prolongation | Inhibition of mouse tumor cachexia and recovery of body weight loss (in words) [2]: inhibit mouse tumor cachexia and recover loss of average of body weight

CSc1ccc(-n2cc(C)cc2-c2ccc(S(N)(=O)=O)cc2)cc1 [Compound 1-94, 4-methyl-1-(4-methylthiophenyl)-2-(4-sulfamoylphenyl)pyrrole]
Life-prolonging Index (%) ([1]; 1 mg/kg oral once daily): 67% | Survival Period (median: days) ([1]; 1 mg/kg oral once daily): 48.5 days | Life-prolonging Index (%) ([1]; 3 mg/kg oral once daily): 21% | Survival Period (median: days) ([1]; 3 mg/kg oral once daily): 35.0 days | Life-prolonging Index (%) ([1]; 10 mg/kg oral once daily): 55% | Survival Period (median: days) ([1]; 10 mg/kg oral once daily): 45.0 days | Body Weight Recovery Rate (%) ([2]; 1 mg/kg oral once per day): 78% | Weight Gain (Δg) ([2]; 1 mg/kg oral once per day): 2.2 g | Body Weight Recovery Rate (%) ([2]; 3 mg/kg oral once per day): 89% | Weight Gain (Δg) ([2]; 3 mg/kg oral once per day): 2.7 g | Body Weight Recovery Rate (%) ([2]; 10 mg/kg oral once per day): 98% | Weight Gain (Δg) ([2]; 10 mg/kg oral once per day): 3.1 g

CS(=O)(=O)c1ccc(C2=C(c3cc(F)cc(F)c3)C(=O)CC2)cc1 [(XIII), 2-(3,5-difluorophenyl)-3-(4-methanesulfonylphenyl)-2-cyclopenten-1-one]
Life-prolongation (in words) [1]: exhibit pronounced life-prolongation | Inhibition of mouse tumor cachexia and recovery of body weight loss (in words) [2]: inhibit mouse tumor cachexia and recover loss of average of body weight

CS(=O)(=O)Nc1ccc([N+](=O)[O-])cc1Oc1ccccc1 [(VII), N-(4-Nitro-2-phenoxyphenyl)methanesulfonamide]
Life-prolongation (in words) [1]: exhibit pronounced life-prolongation | Inhibition of mouse tumor cachexia and recovery of body weight loss (in words) [2]: inhibit mouse tumor cachexia and recover loss of average of body weight

CCN1CC/C(=C\c2cc(C(C)(C)C)c(O)c(C(C)(C)C)c2)S1(=O)=O [(X), (E)-2-ethyl-5-(3,5-di-t-butyl-4-hydroxy)benzylidene-1,2-isothiazolidine-1,1-dioxide]
Life-prolongation (in words) [1]: exhibit pronounced life-prolongation | Inhibition of mouse tumor cachexia and recovery of body weight loss (in words) [2]: inhibit mouse tumor cachexia and recover loss of average of body weight

CS(=O)(=O)c1ccc(C2=C(c3ccccc3)C(=O)OC2)cc1 [(XII), 3-phenyl-4-(4-methanesulfonylphenyl)-5H-furan-2-one]
Life-prolongation (in words) [1]: exhibit pronounced life-prolongation | Inhibition of mouse tumor cachexia and recovery of body weight loss (in words) [2]: inhibit mouse tumor cachexia and recover loss of average of body weight

CCOc1ccc(-c2cc(C)cn2-c2ccc(S(N)(=O)=O)cc2)cc1 [Compound 2-78]
Life-prolonging Index (%) ([1]; 1 mg/kg oral once daily): 55% | Survival Period (median: days) ([1]; 1 mg/kg oral once daily): 45.0 days | Life-prolonging Index (%) ([1]; 3 mg/kg oral once daily): 74% | Survival Period (median: days) ([1]; 3 mg/kg oral once daily): 50.5 days | Life-prolonging Index (%) ([1]; 10 mg/kg oral once daily): 67% | Survival Period (median: days) ([1]; 10 mg/kg oral once daily): 48.5 days | Body Weight Recovery Rate (%) ([2]; 1 mg/kg oral once per day): 85% | Weight Gain (Δg) ([2]; 1 mg/kg oral once per day): 2.5 g | Body Weight Recovery Rate (%) ([2]; 3 mg/kg oral once per day): 85% | Weight Gain (Δg) ([2]; 3 mg/kg oral once per day): 2.5 g | Body Weight Recovery Rate (%) ([2]; 10 mg/kg oral once per day): 88% | Weight Gain (Δg) ([2]; 10 mg/kg oral once per day): 2.6 g

Cc1onc(-c2ccccc2)c1-c1ccc(S(N)(=O)=O)cc1 [(XIV), 4-[5-methyl-3-phenylisoxazol-4-yl)benzenesulfonamide]
Life-prolongation (in words) [1]: exhibit pronounced life-prolongation | Inhibition of mouse tumor cachexia and recovery of body weight loss (in words) [2]: inhibit mouse tumor cachexia and recover loss of average of body weight
